{
  "source": "patent US20120263764A1",
  "about": "“COMPOSITIONS AND METHODS FOR INHIBITING AND/OR MODULATING EFFECTOR T-CELLS INVOLVED IN INFLAMMATORY NEURODEGENERATIVE DISEASE” (Revalesio Corporation, priority 2011, published 2012)",
  "experiment": "Body weight in MBP EAE rat model",
  "format": "in vivo, Lewis rats",
  "settings": "Group 2F; at study termination",
  "text": "(§1) Body weight loss can be the first sign of disease initiation, while a sudden marked weight gain tends to accompany remission of EAE symptoms. Therefore, determination of individual body weights of animals was made shortly before EAE induction on study day 0 (study commencement) and thereafter on a daily basis throughout the entire 21-day observation period.\nas §1, with “This working EXAMPLE discloses the weight change of rats subjected to the experiment described in Example 7. Body” for “Body”, “and” for “and thereafter”, “the” for “the entire”",
  "data": [
    {"compound": "C[C@@H]1C[C@H]2[C@@H]3CCC4=CC(=O)C=C[C@]4(C)[C@@]3(F)[C@@H](O)C[C@]2(C)[C@@]1(O)C(=O)CO", "note": "[Dexamethasone]", "values": [
      {"measurement": "mean body weight lost", "result": 2, "unit": "%"}
    ]}
  ]
}
